# Tested on: patients after acute myocardial infarction
# Assay: Life quality, Seattle Angina Questionnaire (SAQ), same clinical trial
# Assay type: in vivo, human
# Details: 9 months after treatment
# Source text: 3508 patients who were in accordance with the diagnostic standards of AMI for 28 days to 2 years and differentiated as Qi deficiency and blood stagnation syndrome by TCM were studied. 0.5 g Chinese medicine composition prepared by the method of EXAMPLE 1 (Coded as QSYQ) was administrated half an hour after meal, 3 times per day.
# There were 19 questions in the Seattle angina questionnaire (SAQ), including 5 parts: physical limitation (PL), anginal stability (AS), anginal frequency (AF), treatment satisfaction (TS) and disease perception (DP). After being given necessary explanation by doctors, the questions were answered independently by patients.
# They included the overall survival time, angina pectoris score, TCM symptom score and life quality score, where angina pectoris score, TCM symptom score and life quality score were evaluated at randomization, in 1st, 3rd, 6th, 9th, 12th month after treatment and 18th month after follow-up.
# All evaluation results of SAQ were described during the period of observation, and Wilcoxon rank sum test was used for inter-group comparison.
# The evaluation results in the SAQ were depicted in different observations, and inter-group comparison was tested by Wilcoxon Rank-sum test.
smiles,measurement,setting,value
"CC(=O)Oc1ccccc1C(=O)O [Control group, aspirine]","SAQ Question 1-4: Not limited, number of patients",FAS,797
same,"SAQ Question 1-4: Not limited, percent of patients",FAS,(45.70%)
same,"SAQ Question 1-4: Other reasons, number of patients",FAS,10
same,"SAQ Question 1-4: Other reasons, percent of patients",FAS,(0.57%)
same,"SAQ Question 1-4: Severely limited, number of patients",FAS,19
same,"SAQ Question 1-4: Severely limited, percent of patients",FAS,(1.09%)
same,"SAQ Question 1-4: Slightly limited, number of patients",FAS,569
same,"SAQ Question 1-4: Slightly limited, percent of patients",FAS,(32.63%)
same,"SAQ Question 1-5: Mildly limited, number of patients",FAS,284
same,"SAQ Question 1-5: Mildly limited, percent of patients",FAS,(16.29%)
same,"SAQ Question 1-5: Moderately limited, number of patients",FAS,103
same,"SAQ Question 1-5: Moderately limited, percent of patients",FAS,(5.91%)
same,"SAQ Question 1-5: Not limited, number of patients",FAS,825
same,"SAQ Question 1-5: Not limited, percent of patients",FAS,(47.33%)
same,"SAQ Question 1-5: Other reasons, number of patients",FAS,11
same,"SAQ Question 1-5: Other reasons, percent of patients",FAS,(0.63%)
same,"SAQ Question 1-5: Severely limited, number of patients",FAS,17
same,"SAQ Question 1-5: Severely limited, percent of patients",FAS,(0.98%)
same,"SAQ Question 1-5: Slightly limited, number of patients",FAS,503
same,"SAQ Question 1-5: Slightly limited, percent of patients",FAS,(28.86%)
same,"SAQ Question 1-9: Mildly limited, % of cases",FAS,(19.38%)
same,"SAQ Question 1-9: Mildly limited, cases",FAS,332
same,"SAQ Question 1-9: Moderately limited, % of cases",FAS,(20.61%)
same,"SAQ Question 1-9: Moderately limited, cases",FAS,353
same,"SAQ Question 1-9: Not limited, % of cases",FAS,(3.91%)
same,"SAQ Question 1-9: Not limited, cases",FAS,67
same,"SAQ Question 1-9: Other reasons, % of cases",FAS,(5.60%)
same,"SAQ Question 1-9: Other reasons, cases",FAS,96
same,"SAQ Question 1-9: Severely limited, % of cases",FAS,(33.39%)
same,"SAQ Question 1-9: Severely limited, cases",FAS,572
same,"SAQ Question 1-9: Slightly limited, % of cases",FAS,(17.10%)
same,"SAQ Question 1-9: Slightly limited, cases",FAS,293
same,"SAQ 2nd question: Clearly increased, % of cases",PP,(0.63%)
same,"SAQ 2nd question: Clearly increased, cases",PP,9
same,"SAQ 2nd question: Clearly reduced, % of cases",PP,(26.01%)
same,"SAQ 2nd question: Clearly reduced, cases",PP,373
same,"SAQ 2nd question: Same, % of cases",PP,(34.94%)
same,"SAQ 2nd question: Same, cases",PP,501
same,"SAQ 2nd question: Slightly increased, % of cases",PP,(3.21%)
same,"SAQ 2nd question: Slightly increased, cases",PP,46
same,"SAQ 2nd question: Slightly reduced, % of cases",PP,(35.22%)
same,"SAQ 2nd question: Slightly reduced, cases",PP,505
same,"SAQ 3rd question: 1-2 times per week, % of cases",PP,(35.22%)
same,"SAQ 3rd question: 1-2 times per week, cases",PP,505
same,"SAQ 3rd question: 1-3 times per day, % of cases",PP,(3.21%)
same,"SAQ 3rd question: 1-3 times per day, cases",PP,46
same,"SAQ 3rd question: <1 time per week, % of cases",PP,(26.01%)
same,"SAQ 3rd question: <1 time per week, cases",PP,373
same,"SAQ 3rd question: No onset, % of cases",PP,(0.00%)
same,"SAQ 3rd question: No onset, cases",PP,0
same,"SAQ 3rd question: ≧3 times per week, % of cases",PP,(34.94%)
same,"SAQ 3rd question: ≧3 times per week, cases",PP,501
same,"SAQ 3rd question: ≧4 times per day, % of cases",PP,(0.63%)
same,"SAQ 3rd question: ≧4 times per day, cases",PP,9
same,"SAQ Question 1-3: Mildly limited, number of patients",PP,37
same,"SAQ Question 1-3: Mildly limited, percent of patients",PP,(2.57%)
same,"SAQ Question 1-3: Moderately limited, number of patients",PP,10
same,"SAQ Question 1-3: Moderately limited, percent of patients",PP,(0.70%)
same,"SAQ Question 1-3: Not limited, number of patients",PP,1187
same,"SAQ Question 1-3: Not limited, percent of patients",PP,(82.60%)
same,"SAQ Question 1-3: Other reasons, number of patients",PP,6
same,"SAQ Question 1-3: Other reasons, percent of patients",PP,(0.42%)
same,"SAQ Question 1-3: Severely limited, number of patients",PP,1
same,"SAQ Question 1-3: Severely limited, percent of patients",PP,(0.07%)
same,"SAQ Question 1-3: Slightly limited, number of patients",PP,196
same,"SAQ Question 1-3: Slightly limited, percent of patients",PP,(13.64%)
same,"SAQ Question 1-4: Mildly limited, number of patients",PP,208
same,"SAQ Question 1-4: Mildly limited, percent of patients",PP,(14.49%)
same,"SAQ Question 1-4: Moderately limited, number of patients",PP,63
same,"SAQ Question 1-4: Moderately limited, percent of patients",PP,(4.39%)
same,"SAQ Question 1-4: Not limited, number of patients",PP,673
same,"SAQ Question 1-4: Not limited, percent of patients",PP,(46.90%)
same,"SAQ Question 1-4: Other reasons, number of patients",PP,10
same,"SAQ Question 1-4: Other reasons, percent of patients",PP,(0.70%)
same,"SAQ Question 1-4: Severely limited, number of patients",PP,9
same,"SAQ Question 1-4: Severely limited, percent of patients",PP,(0.63%)
same,"SAQ Question 1-4: Slightly limited, number of patients",PP,472

# From US9211310B2, “Use of a Chinese medicine composition in preparing medicaments for treating secondary prevention of myocardial infarction” (TASLY PHARMACEUTICAL GROUP CO., LTD, priority 2010, dated 2015)
